The values below come from patent US20230358677A1, “Reversible Excited-State Photoacids and Photobases as Dynamic Fluorescence Sensors of Protonic Species” (California Institute of Technology, priority 2022, published 2023).

Data set [1] in a line: Stern-Volmer analysis of quenching of HPhenDS by proton acceptors. Conditions: quenching of aqueous HPhenDS, constant ionic strength. It is filed as physicochemical. The protocol:
ESPT availability and ESPT to water curves are calculated from steady-state absorption and photoluminescence data for 15 μM HPhenDS across the pH window indicated at constant ionic strength (except for pH values below 0). Concentrations of all buffers were simulated to be 1 M total salt added. Ability to sense is predicted by estimating total concentration at a given pH value based on the pKa value of the buffer and fit to a Henderson-Hasselbalch-type equation. The resultant concentration is then multiplied by the ESPT availability of HPhenDS at each pH value.
FIGS. 21A and 21B illustrate Stern-Volmer analysis for quenching constant Ksv in accordance with an embodiment.

For data set [2] the following is noted: proton acceptor, aqueous; cited from earlier work.
The nature of the next data set: physchem. Conditions: for k+q,corr: corrected rate constant, ESPT from NS—NH2* to the proton acceptor; for k+q: direct excited-state proton transfer from NS—NH2* to the proton acceptor; for KSV,quencher (Equation 7) / KSV,quencher (traditional linearized Stern-Volmer): quenching of NS—NH2*; for pKa,BH+ (Equation 7), value after the slash: equals titration-curve values of b153. An excerpt:
Assuming that photoluminescence quenching occurs by ESPT from NS—NH2* to OH^−(aq), the data support that when aOH− is small (i.e. at pH less than about 12), ESPT can be quite slow compared to the excited-state lifetime of NS—NH2*, due to mass action (FIG. 2B). The non-unity quantum yield for ESPT in weakly alkaline aqueous solutions afforded us an opportunity to evaluate a series of aqueous proton-accepting quenchers (glycine (Gly(aq)), proline (Pro(aq)), and trifluoroethanol (TFE(aq))) for their ability to undergo ESPT with NS—NH2*. In order to clearly observe ESPT to a species other than OH^−(aq), added proton-accepting quenchers had to be more basic (ΔG^o<0), or slightly more acidic (ΔG^o>0), than NS—NH2*, and less basic than OH^−(aq). […] As pH values approach and pass the pKa of the proton-accepting quencher, the rate of ESPT slows from a decrease in the concentration of proton-accepting quencher due to its protonation. This is supported by observations from analogous experiments performed using different concentrations of quencher. Best fits of measured photoluminescence spectroscopy data to a modified Stern-Volmer equation for a two-quencher system, including both OH^−(aq) and proton-accepting quencher, provided bimolecular rate constants for deprotonation of the photoacid by each quencher,
where KSV,OH−=K*^−1b and KSV,quencher=k+q,quencherτo,PAH* are the dynamic quenching constants for excited-state proton transfer to OH^−(aq) and proton-accepting quencher, respectively, k+q,quencher is the bimolecular rate constant (M^−1 s^−1) for ESPT quenching by the proton-accepting quencher, and the sum of the activities of B and BH^+ is approximated as the total concentration of the proton-accepting quencher. While the pKa of the proton-accepting quencher is an adjustable parameter during best fitting, extracted pKa values are close to pKa values obtained from the acid-base titration curves of the proton-accepting quenchers. Changing the proton-accepting quencher to one with a smaller pKa value results in a slower non-diffusion-limited rate constant for ESPT with NS—NH2*. The observation of ESPT directly from NS—NH2* to each of two different amino acids, Gly and Pro, is notable, and may have important implications for biological systems where direct protonation of proteins can induce cellular responses.
Table 2 lists driving-force-dependent rate constants for direct excited-state proton transfer from NS—NH2* to various proton-accepting quenchers.
Several embodiments use the steady-state ultraviolet-visible electronic absorption and photoluminescence spectroscopy for characterization. Equal amounts of aromatic amine photoacids are portioned into five separate 100 mL volumetric flasks. For the non-proton-accepting quencher experiments, the five flasks are filled to the volumetric marker with aqueous solutions of 1 M HCl, 1 M KOH, 2 M KOH, 3 M KOH, and 4 M KOH. The aqueous 1 M KOH solution is titrated with the aqueous 1 M HCl solution to reach the desired pH values from 14 to 6, and the H^+ activities are measured using a pH meter (pH/Ion 510). […] Electronic absorption spectra and photoluminescence spectra are acquired using absorbance and fluorescence spectrometer(s), using a square-bottom quartz cuvette (1 cm path length) at room temperature. Electronic absorption spectra are baselined on a spectrum of deionized water and were corrected for scattering of light. Photoluminescence spectra are recorded by exciting with 310 nm light, slit widths for the excitation and emission monochromators were set to 5 nm, and the PMT detector voltage is set to 600 V. Photoluminescence spectra are corrected for changes in solution refractive index, inner filter effects and the wavelength-dependent correction factor of the fluorimeter.

The conditions of data set [3]: 1 M aqueous solution titrated with 4 M KOH.
For data set [4] the following is noted: cited from earlier work.
[5] abbreviates: conjugate acid of proton acceptor.

Regarding `O=C(O)O` [Bicarbonate], in data set [1], the KSV entry is on record as “about 0.6051 M^−1”.

Regarding Phosphate, the “Diffusion Coefficient” value in data set [2] is reported as 8.79 10^−6 cm^2/s. Further, in the data set “physchem”, the “pKa,BH+ (Equation 7), value before the slash” value is 11.4/—; the “k+q,corr” value was 22.6 ± 3.8 10^8 M^−1 s^−1; the “k+q” value is on record as 5.4 ± 0.9 10^8 M^−1 s^−1. Further, in the data set “physchem” (0.17 M total phosphate), the “bimolecular rate constant, deprotonation of NS—NH2* by the quencher” value (shortened to “bimolecular rate constant, deprotonation”) was “(11±2)×10^8 M^−1 s^−1”; the “KSV,quencher (Equation 7)” value is 2.2 ± 0.3 M⁻¹; the “KSV,quencher (traditional linearized Stern-Volmer)” value came to 3.4 ± 0.1 M⁻¹.

For the molecule Hydroxide, the “Diffusion Coefficient” value in data set [2] is recorded as 52.70 10^−6 cm^2/s. Further, the “pKa,BH+ (Equation 7), value before the slash” value in “physchem” (setting [5]) is given as 14/—. For the same molecule, in the data set “physchem”, the “k+q,corr” value is reported as 100 ± 3 10^8 M^−1 s^−1 and the “k+q” value is given as 100 ± 3 10^8 M^−1 s^−1.

On to `CC(=O)O` [Acetate], for which the KSV result in data set [1] is listed as “about 0.1548 M^−1”.

Turning to `O=CO` [Formate], in data set [1], the KSV result is “about 0.4623 M^−1”.

As for Trifluoroethanol, the “Diffusion Coefficient” value in data set [2] is recorded as 6.00 10^−6 cm^2/s. Besides, in the data set “physchem” (1 M total quencher), the “bimolecular rate constant, deprotonation” value was “(11±2)×10^8 M^−1 s^−1”; the “KSV,quencher (Equation 7)” value stood at 5 ± 1 M⁻¹; the “KSV,quencher (traditional linearized Stern-Volmer)” value is 6.2 ± 0.1 M⁻¹. In “physchem” (setting [5]), the “pKa,BH+ (Equation 7), value before the slash” value stood at 12.4 and the “pKa,BH+ (Equation 7), value after the slash” value was found to be 12.6. In the data set “physchem”, the “k+q,corr” value is 58.7 ± 11.5 10^8 M^−1 s^−1 and the “k+q” value is recorded as 11.2 ± 2.2 10^8 M^−1 s^−1. Moreover, the “pKa from acid-base titration curve” value in data set [3] is listed as 12.6. Also, in data set [4], the “pKa, literature value” is 12.4.

Consider `NCC(=O)O` [Glycine], for which the “Diffusion Coefficient” value in data set [2] is 10.60 10^−6 cm^2/s. In “physchem” (1 M total quencher), the “bimolecular rate constant, deprotonation” value is recorded as “(0.39±0.02)×10^8 M^−1 s^−1”; the “KSV,quencher (Equation 7)” value is 0.18 ± 0.01 M⁻¹; the “KSV,quencher (traditional linearized Stern-Volmer)” value came out at 0.19 ± 0.01 M⁻¹. In “physchem” (2 M total glycine), the “bimolecular rate constant, deprotonation” value is “(0.90±0.04)×10^8 M^−1 s^−1” and the “KSV,quencher (Equation 7)” value was 0.20 ± 0.01 M⁻¹. Besides, in “physchem” (setting [5]), the “pKa,BH+ (Equation 7), value before the slash” value worked out at 9.7 and the “pKa,BH+ (Equation 7), value after the slash” value was 9.9. In addition, in “physchem”, the “k+q,corr” value was 1.44 ± 0.07 10^8 M^−1 s^−1 and the “k+q” value is 0.39 ± 0.02 10^8 M^−1 s^−1. Moreover, the “pKa from acid-base titration curve” value in data set [3] worked out at 9.9.

With `O=C([O-])[O-].[Na+].[Na+]` [Carbonate], the KSV entry in data set [1] is recorded as “about 1.02 M^−1”.
